Values after ≈ are worked out from the molar mass of the structure shown.
Assays:
[1] = HEK293 toxicity, 96-well dose-response (UCL; MTT or resazurin, with or without recovery); type: cell-based, human; conditions: human, HEK293 cells; read-out: HEK293 CC50
Summary of the method: (§1)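 HEK293 cells seeded 48 h beforehand (700 cells for recovery runs, 5000 for non-recovery), then exposed 24 h to 2-fold dilutions from 32 μg/mL down to […] (1% DMSO top). Viability read by MTT or resazurin, either immediately or after 72 h recovery; Dmax = 100 − viability% at 32 μg/mL.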

[2] = system: HEK293 cells; experiment: as above; type: cell-based, human; conditions: 32 μg/mL
Summary of the method: as §1

SMILES | CC50 at 24 h [1] [µg/mL] | spread of Dmax values comparing recovery and non-recovery conditions [2]
c1ccc(-c2nc3n(c2-c2ccc4sccc4c2)CCC3)nc1 [OSA_000822] | 2.9 (≈ 9.14 µM) | –
c1ccc(-c2nc3n(c2-c2ccc4occc4c2)CCC3)nc1 [compound 821] | 1.7 (≈ 5.64 µM) | small difference
c1ccc(-c2nc3n(c2-c2ccc4sccc4c2)CCC3)nc1 [compound 822] | – | small difference
